Source: patent US11702411B2, “Pyridine, pyrazine, and triazine compounds as allosteric SHP2 inhibitors” (Revolution Medicines, Inc., priority 2017, dated 2023)

target: SHP2 (Homo sapiens (Human), UniProt Q06124); test: SHP2 allosteric inhibition assay (DiFMUP prompt fluorescence, activating peptide); assay type: biochemical; conditions: 0.2 nM SHP2, 0.5 μM activating peptide, DiFMUP substrate; read-out: SHP2 Allosteric IC50
Description: Without wishing to be bound by theory, SHP is allosterically activated through binding of bis-tyrosyl-phosphorylated peptides to its Src Homology 2 (SH2) domains. The latter activation step leads to the release of the auto-inhibitory interface of SHP2, which in turn renders the SHP2 protein tyrosine phosphatase (PTP) active and available for substrate recognition and reaction catalysis. The catalytic activity of SHP2 was monitored using the surrogate substrate DiFMUP in a prompt fluorescence assay format.
The phosphatase reactions were performed at room temperature in 96-well black polystyrene plate, flat bottom, non-binding surface (Corning, Cat #3650) using a final reaction volume of 100 μL and the following assay buffer conditions: 50 mM HEPES, pH 7.2, 100 mM NaCl, 0.5 mM EDTA, 0.05% P-20, 1 mM DTT.
The inhibition of SHP2 by compounds of the present disclosure (concentrations varying from 0.00005-10 μM) was monitored using an assay in which 0.2 nM of SHP2 was incubated with 0.5 μM of Activating Peptide 1 (sequence: H2N-LN(pY)IDLDLV(dPEG8)LST(pY)ASINFQK-amide) or Activating Peptide 2 (sequence: H2N-LN(pY)AQLWHA(dPEG8)LTI(pY)ATIRRF-amide). After 30-60-minutes incubation at 25° C., the surrogate substrate DiFMUP (Invitrogen, Cat #D6567) was added to the reaction and activity was determined by a kinetic read using a microplate reader (Envision, Perkin-Elmer or Spectramax M5, Molecular Devices). The excitation and emission wavelengths were 340 nm and 450 nm, respectively. Initial rates were determined from a linear fit of the data, and the inhibitor dose response curves were analyzed using normalized IC50 regression curve fitting with control based normalization.

IC50	Structure (SMILES)
≤ 50 nM	C[C@@H]1OCC2(CCN(c3ccc(Sc4ccnc(N)c4Cl)nc3CO)CC2)[C@@H]1N [Compound 5, [6-[(2-amino-3-chloro-4-pyridyl)sulfanyl]-3-[(3S,4S)-4-amino-3-methyl-2-oxa-8-azaspiro[4.5]decan-8-yl]-2-pyridyl]methanol]
≤ 50 nM	C[C@@H]1OCC2(CCN(c3ncc(Sc4ccnc(N)c4Cl)nc3CO)CC2)[C@@H]1N [Compound 31, {6-[(2-amino-3-chloropyridin-4-yl)sulfanyl]-3-[(3S,4S)-4-amino-3-methyl-2-oxa-8-azaspiro[4.5]decan-8-yl]pyrazin-2-yl}methanol]
≤ 50 nM	C[C@@H]1OCC2(CCN(c3ncc(Sc4ccnc(N5CC(O)C5)c4Cl)nc3CO)CC2)[C@@H]1N [Compound 29, 1-[4-({5-[(3S,4S)-4-amino-3-methyl-2-oxa-8-azaspiro[4.5]decan-8-yl]-6-(hydroxymethyl)pyrazin-2-yl}sulfanyl)-3-chloropyridin-2-yl]azetidin-3-ol]
> 500 nM	COc1ccc(Cl)c(Cl)c1-c1cnc(N2CCC3(CC2)CO[C@@H](C)[C@H]3N)c(CO)n1 [Compound 7, {3-[(3S,4S)-4-amino-3-methyl-2-oxa-8-azaspiro[4.5]decan-8-yl]-6-(2,3-dichloro-6-methoxyphenyl)pyrazin-2-yl}methanol]
